Assays:
[1] = Drug uptake in lung of Balb/c mouse allografted with mouse B16F10 cells using 99mTc(CO)3-labeled compound at 10 to 12 MBq/kg, iv measured at 2 hrs; type: ADME, organism-based; conditions: in vivo
[2] = Ratio of drug level in tumor to blood of Balb/c mouse allografted with mouse B16F10 cells using 99mTc(CO)3-labeled compound at 10 to 12 MBq/kg, iv measured at 2 hrs; type: ADME, organism-based, Tumor/tissue
[3] = Drug uptake in kidney of Balb/c mouse allografted with mouse B16F10 cells using 99mTc(CO)3-labeled compound at 4 to 8 MBq, iv measured at 4 hrs by scintigraphic imaging method; type: ADME, organism-based; conditions: in vivo
[4] = Drug uptake in tumor muscle of Balb/c mouse allografted with mouse B16F10 cells using 99mTc(CO)3-labeled compound at 10 to 12 MBq/kg, iv measured at 2 hrs; type: ADME, organism-based; conditions: in vivo
[5] = Drug degradation in histidine solution using 99mTc(CO)3-labeled compound after 24 hrs by TLC method; type: physicochemical; conditions: read-out: Drug degradation
[6] = Drug uptake in kidney of Balb/c mouse allografted with mouse B16F10 cells using 99mTc(CO)3-labeled compound at 10 to 12 MBq/kg, iv measured at 4 hrs; type: ADME, organism-based; conditions: in vivo
[7] = Drug uptake in stomach of Balb/c mouse allografted with mouse B16F10 cells using 99mTc(CO)3-labeled compound at 10 to 12 MBq/kg, iv measured at 4 hrs; type: ADME, organism-based; conditions: in vivo
[8] = Drug uptake in spleen of Balb/c mouse allografted with mouse B16F10 cells using 99mTc(CO)3-labeled compound at 10 to 12 MBq/kg, iv measured at 2 hrs; type: ADME, organism-based; conditions: in vivo
[9] = Drug uptake in lung of Balb/c mouse allografted with mouse B16F10 cells using 99mTc(CO)3-labeled compound at 10 to 12 MBq/kg, iv measured at 4 hrs; type: ADME, organism-based; conditions: in vivo
[10] = Ratio of drug level in tumor to muscle of Balb/c mouse allografted with mouse B16F10 cells using 99mTc(CO)3-labeled compound at 10 to 12 MBq/kg, iv measured at 4 hrs; type: ADME, organism-based, Tumor/tissue; conditions: in vivo
[11] = Drug uptake in mouse B16F10 cells using 99mTc(CO)3-labeled compound at 15 to 20 MBq/ml after 240 mins by gamma scintillation counting method relative to total added activity; type: ADME, cell-based; conditions: b16-f10, 4 h
[12] = Drug uptake in kidney of Balb/c mouse allografted with mouse B16F10 cells using 99mTc(CO)3-labeled compound at 10 to 12 MBq/kg, iv measured at 2 hrs; type: ADME, organism-based; conditions: in vivo
[13] = Drug uptake in mouse B16F10 cells using 99mTc(CO)3-labeled compound at 15 to 20 MBq/ml after 30 mins by gamma scintillation counting method; type: ADME, cell-based; conditions: b16-f10, 0.5 h
[14] = Drug uptake in heart of Balb/c mouse allografted with mouse B16F10 cells using 99mTc(CO)3-labeled compound at 10 to 12 MBq/kg, iv measured at 2 hrs; type: ADME, organism-based; conditions: in vivo
[15] = Drug uptake in intestine of Balb/c mouse allografted with mouse B16F10 cells using 99mTc(CO)3-labeled compound at 10 to 12 MBq/kg, iv measured at 2 hrs; type: ADME, organism-based; conditions: in vivo
[16] = Drug uptake in tumor of Balb/c mouse allografted with mouse B16F10 cells using 99mTc(CO)3-labeled compound at 4 to 8 MBq, iv measured at 4 hrs by scintigraphic imaging method; type: ADME, organism-based, Neoplasm; conditions: in vivo
[17] = Drug uptake in mouse B16F10 cells using 99mTc(CO)3-labeled compound at 15 to 20 MBq/ml after 30 mins by gamma scintillation counting method relative to total added activity; type: ADME, cell-based; conditions: b16-f10, 0.5 h
[18] = Drug uptake in spleen of Balb/c mouse allografted with mouse B16F10 cells using 99mTc(CO)3-labeled compound at 10 to 12 MBq/kg, iv measured at 4 hrs; type: ADME, organism-based; conditions: in vivo
[19] = Drug uptake in gastrointestinal tract of Balb/c mouse allografted with mouse B16F10 cells using 99mTc(CO)3-labeled compound at 4 to 8 MBq, iv measured at 4 hrs by scintigraphic imaging method; type: ADME, organism-based; conditions: in vivo
[20] = Drug uptake in intestine of Balb/c mouse allografted with mouse B16F10 cells using 99mTc(CO)3-labeled compound at 10 to 12 MBq/kg, iv measured at 4 hrs; type: ADME, organism-based; conditions: in vivo
[21] = Ratio of drug level in tumor to muscle of Balb/c mouse allografted with mouse B16F10 cells using 99mTc(CO)3-labeled compound at 10 to 12 MBq/kg, iv measured at 2 hrs; type: ADME, organism-based, Tumor/tissue; conditions: in vivo
[22] = Drug uptake in liver of Balb/c mouse allografted with mouse B16F10 cells using 99mTc(CO)3-labeled compound at 4 to 8 MBq, iv measured at 4 hrs by scintigraphic imaging method; type: ADME, organism-based; conditions: in vivo
[23] = Drug uptake in heart of Balb/c mouse allografted with mouse B16F10 cells using 99mTc(CO)3-labeled compound at 10 to 12 MBq/kg, iv measured at 4 hrs; type: ADME, organism-based; conditions: in vivo
[24] = Hemolytic activity in rat erythrocytes up to 50 uM after 1 hr relative to control; type: ADME, cell-based, Erythrocyte; conditions: read-out: Activity
[25] = Drug uptake in muscle of Balb/c mouse allografted with mouse B16F10 cells using 99mTc(CO)3-labeled compound at 10 to 12 MBq/kg, iv measured at 4 hrs; type: ADME, organism-based, Muscle tissue; conditions: in vivo
[26] = Drug uptake in tumor muscle of Balb/c mouse allografted with mouse B16F10 cells using 99mTc(CO)3-labeled compound at 10 to 12 MBq/kg, iv measured at 4 hrs; type: ADME, organism-based; conditions: in vivo
[27] = Drug uptake in liver of Balb/c mouse allografted with mouse B16F10 cells using 99mTc(CO)3-labeled compound at 10 to 12 MBq/kg, iv measured at 4 hrs; type: ADME, organism-based; conditions: in vivo
[28] = Drug uptake in mouse B16F10 cells using 99mTc(CO)3-labeled compound at 15 to 20 MBq/ml after 240 mins by gamma scintillation counting method; type: ADME, cell-based; conditions: b16-f10, 4 h
[29] = Drug uptake in urine of Balb/c mouse allografted with mouse B16F10 cells using 99mTc(CO)3-labeled compound at 10 to 12 MBq/kg, iv measured at 2 hrs; type: ADME, organism-based; conditions: in vivo
[30] = Drug uptake in liver of Balb/c mouse allografted with mouse B16F10 cells using 99mTc(CO)3-labeled compound at 10 to 12 MBq/kg, iv measured at 2 hrs; type: ADME, organism-based; conditions: in vivo
[31] = Ratio of drug level in tumor to blood of Balb/c mouse allografted with mouse B16F10 cells using 99mTc(CO)3-labeled compound at 10 to 12 MBq/kg, iv measured at 4 hrs; type: ADME, organism-based, Tumor/tissue
[32] = Drug uptake in urinary bladder of Balb/c mouse allografted with mouse B16F10 cells using 99mTc(CO)3-labeled compound at 4 to 8 MBq, iv measured at 4 hrs by scintigraphic imaging method; type: ADME, organism-based; conditions: in vivo
[33] = Hemolytic activity in rat erythrocytes at 100 uM after 1 hr relative to control; type: ADME, cell-based, Erythrocyte; conditions: read-out: Activity
[34] = Drug uptake in stomach of Balb/c mouse allografted with mouse B16F10 cells using 99mTc(CO)3-labeled compound at 10 to 12 MBq/kg, iv measured at 2 hrs; type: ADME, organism-based; conditions: in vivo
[35] = Drug uptake in blood of Balb/c mouse allografted with mouse B16F10 cells using 99mTc(CO)3-labeled compound at 10 to 12 MBq/kg, iv measured at 4 hrs; type: ADME, organism-based; conditions: in vivo
[36] = Metabolic stability in rat serum assessed as parent compound remaining using 99mTc(CO)3-labeled compound after 24 hrs by TLC method; type: ADME, cell-free; conditions: read-out: Stability
[37] = n-Octanol-phosphate buffer partition co-efficient, log P of 99mTc(CO)3-labeled compound at 2 to 3 KBq after 1 min by gamma scintillation counting method; type: physicochemical
[38] = Stability in saline assessed as parent compond remaining using 99mTc(CO)3-labeled compound after 24 hrs by TLC method; type: physicochemical; conditions: read-out: Stability
[39] = Drug uptake in muscle of Balb/c mouse allografted with mouse B16F10 cells using 99mTc(CO)3-labeled compound at 10 to 12 MBq/kg, iv measured at 2 hrs; type: ADME, organism-based, Muscle tissue; conditions: in vivo
[40] = Drug uptake in urine of Balb/c mouse allografted with mouse B16F10 cells using 99mTc(CO)3-labeled compound at 10 to 12 MBq/kg, iv measured at 4 hrs; type: ADME, organism-based; conditions: in vivo
[41] = Drug uptake in blood of Balb/c mouse allografted with mouse B16F10 cells using 99mTc(CO)3-labeled compound at 10 to 12 MBq/kg, iv measured at 2 hrs; type: ADME, organism-based; conditions: in vivo

What does the source list for H-HYKHGK-NH2?
Drug uptake [1]: 0.33 % ID/g; Kp at 2 h [2]: 0.97; Drug uptake [3]: Active; Drug uptake [4]: 1.83 % ID/g; degraded at 24 h [5]: 5%; Drug uptake [6]: 15.76 % ID/g; Drug uptake [7]: 0.19 % ID/g; Drug uptake [8]: 0.63 % ID/g; Drug uptake [9]: 0.24 % ID/g; Ratio [10]: 18.81; Drug uptake [11]: 9.59%; Drug uptake [12]: 17.15 % ID/g; Drug uptake [13]: 41.41%; Drug uptake [14]: 0.08 % ID/g; Drug uptake [15]: 7.61 % ID/g; Drug uptake [16]: Active; Drug uptake [17]: 4.76%; Drug uptake [18]: 0.45 % ID/g; Drug uptake [19]: Active; Drug uptake [20]: 8.32 % ID/g; Ratio [21]: 10.11; Drug uptake [22]: Active; Drug uptake [23]: 0.06 % ID/g; hemolysis at 1 h [24]: 5 to 6%; Drug uptake [25]: 0.16 % ID/g; Drug uptake [26]: 3.01 % ID/g; Drug uptake [27]: 14.64 % ID/g; Drug uptake [28]: 83%; Drug uptake [29]: 42.15 %ID/ml; Drug uptake [30]: 18.15 % ID/g; Kp at 4 h [31]: 1.82; Drug uptake [32]: Active; hemolysis at 1 h, 100 µM [33]: 7 to 9%; Drug uptake [34]: 0.23 % ID/g; Drug uptake [35]: 1.65 %ID/ml; remaining at 24 h [36]: ≥ 92%; logP at 1 min [37]: -0.978; remaining at 24 h [38]: ≥ 92%; Drug uptake [39]: 0.18 % ID/g; Drug uptake [40]: 49.26 %ID/ml; Drug uptake [41]: 1.88 %ID/ml
